In the assay the target is T1, A431 cells EGFR-TK phosphorylation stimulated by EGF (Homo sapiens, UniProt P00533).
T1 construct: against A431 cells EGFR-TK; endogenous in cells; host or cells: A431 cells
Briefly: Inhibition of cellular EGFR-TK phosphorylation stimulated by EGF in A431 cells. The assay is classed as cell-based. The settings on record: for inhibition at 3 µM: A-431, concentration of 3 μM, A431 cells, EGF stimulated, one-time measurement at a single concentration (preliminary selection), NA = No activity, read-out: Inhibition Percent (%); for EC50: A431 cells EGFR-TK phosphorylation stimulated by EGF (Table 4). As for the experimental part: Inhibition Experiment of Cellular Epidermal Growth Factor Receptor Tyrosine Kinase
1) A431 cells were cultured in a medium which was prepared by adding 10% FCS into another medium comprising 50% DMEM and 50% F12.
2) A431 cells grown in six-well plates were cultured in a serum-free medium for 24 hours. During the 24 hour period the medium was replenished once after 12 hours.
3) A solution containing a compound to be assessed was added the A431 cells and the cells were cultured for 2 hours, supplemented twice by a medium free of the compound, and then EGF (100 ng/well) was added, and cultured for 5 minutes.
4) A431 cell homogenate was prepared by Laemili buffer which comprised 2% sodium dodecyl sulfonate (SDS), 5% 2-mercaptoethanol, 10% glycerol and 5 mM Tris (pH 6.8).
5) The A431 cell homogenate was heated for 5 minutes at 100° C.
6) Proteins in the A431 cell homogenates were separated by PAGE and transferred onto a nitrocellulose membrane, and an infrared reading was obtained.

In patent publication US8765946B2, “Methods of preparing and using quinazoline and quinoline derivatives” (priority 2006, dated 2014) one finds inhibition and EC50 data, which are given here for 13 compounds.

T1 sequence (P00533 25-1210): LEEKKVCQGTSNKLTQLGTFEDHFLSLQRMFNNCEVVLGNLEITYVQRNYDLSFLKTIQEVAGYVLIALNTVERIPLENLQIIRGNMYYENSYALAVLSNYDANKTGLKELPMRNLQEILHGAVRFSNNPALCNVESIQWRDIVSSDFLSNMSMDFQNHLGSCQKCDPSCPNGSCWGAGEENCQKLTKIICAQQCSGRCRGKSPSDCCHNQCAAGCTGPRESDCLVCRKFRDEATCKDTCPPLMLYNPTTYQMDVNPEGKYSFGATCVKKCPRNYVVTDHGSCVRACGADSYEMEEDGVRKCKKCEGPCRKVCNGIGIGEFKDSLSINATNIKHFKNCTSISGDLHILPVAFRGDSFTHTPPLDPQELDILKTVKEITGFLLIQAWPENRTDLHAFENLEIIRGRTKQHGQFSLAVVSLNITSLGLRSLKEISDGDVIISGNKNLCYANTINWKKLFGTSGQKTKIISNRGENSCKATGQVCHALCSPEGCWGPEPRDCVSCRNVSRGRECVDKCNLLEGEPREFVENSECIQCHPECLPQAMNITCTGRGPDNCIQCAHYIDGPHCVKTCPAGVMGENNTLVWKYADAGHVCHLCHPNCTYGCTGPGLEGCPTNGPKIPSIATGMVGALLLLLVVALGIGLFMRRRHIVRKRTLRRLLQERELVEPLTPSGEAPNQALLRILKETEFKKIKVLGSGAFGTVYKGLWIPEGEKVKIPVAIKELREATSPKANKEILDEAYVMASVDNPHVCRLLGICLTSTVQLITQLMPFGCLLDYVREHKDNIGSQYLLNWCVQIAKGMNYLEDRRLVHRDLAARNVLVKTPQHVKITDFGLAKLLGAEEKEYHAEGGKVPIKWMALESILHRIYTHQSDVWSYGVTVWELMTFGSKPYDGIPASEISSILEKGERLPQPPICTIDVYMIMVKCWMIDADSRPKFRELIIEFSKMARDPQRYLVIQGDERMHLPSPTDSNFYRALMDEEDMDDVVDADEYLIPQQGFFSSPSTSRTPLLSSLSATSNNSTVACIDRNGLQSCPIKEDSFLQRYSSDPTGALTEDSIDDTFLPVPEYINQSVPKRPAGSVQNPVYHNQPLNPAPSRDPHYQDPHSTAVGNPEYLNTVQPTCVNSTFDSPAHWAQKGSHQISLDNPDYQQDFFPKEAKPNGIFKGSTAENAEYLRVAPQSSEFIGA

As for `C#Cc1cccc(Nc2ncnc3ccc(NC(=O)C=C4CCN(CC)CC4)cc23)c1` [Example 5, 2-(1-Ethylpiperidin-4-ylidene)-N-(4-(3-ethynylphenylamino)quinazolin-6-yl)acetamide], the inhibition (commonly the change of the read-out against control, counted positive when it falls) at 3 µM was determined as 73%.
On the same count and under the same terms, the result for `C#Cc1cccc(Nc2ncnc3ccc(NC(=O)C=C4CCN(Cc5ccccc5)CC4)cc23)c1` [Example 6, 2-(1-benzylpiperidin-4-ylidene)-N-(4-(3-ethynylphenylamino)quinazolin-6-yl)acetamide] reads 24%; that for `O=C(C=C1CCNCC1)Nc1cc2c(Nc3cccc(Cl)c3)ncnc2cc1F` [Example 30, N-(4-(3-chlorophenylamino)-7-fluoroquinazolin-6-yl)-2-(piperidin-4-ylidene)acetamide], 55%; that for `O=C(C=C1CCNCC1)Nc1ccc2ncnc(Nc3ccccc3)c2c1` [Example 31, N-(4-(phenylamino)quinazolin-6-yl)-2-(piperidin-4-ylidene)acetamide], 33%.
`C[C@@H](Nc1ncnc2ccc(NC(=O)C=C3CCNCC3)cc12)c1ccccc1` [Example 35, N-(4-((R)-1-phenylethylamino)quinazolin-6-yl)-2-(piperidin-4-ylidene)acetamide]: the inhibition at 3 µM stood at 23%.
Turning to `O=C(C=C1CCNCC1)Nc1cc2c(Nc3cccc(Br)c3)ncnc2cc1OCCCN1CCOCC1` [Example 37, N-(4-(3-bromophenylamino)-7-(3-morpholinopropoxy)quinazolin-6-yl)-2-(piperidin-4-ylidene)acetamide], the inhibition at 3 µM was 82%.
Turning to `COCCOc1cc2ncnc(Nc3cccc(Br)c3)c2cc1NC(=O)C=C1CCNCC1` [Example 40, N-(4-(3-bromophenylamino)-7-(2-methoxyethoxy)quinazolin-6-yl)-2-(piperidin-4-ylidene)acetamide], the inhibition at 3 µM turned out to be 89%.
For the compound `COCCOc1cc2ncnc(Nc3cccc(Br)c3)c2cc1NC(=O)C=C1CCN(C)CC1` [Example 65, N-(4-(3-bromophenylamino)-7-(2-methoxyethoxy)quinazolin-6-yl)-2-(1-methylpiperidin-4-ylidene)acetamide], the EC50 – broadly, the concentration that produces a half-maximal response – turned out to be 230 nM.
On to `CCOc1cc2ncnc(Nc3ccc(OCc4ccccn4)c(Cl)c3)c2cc1NC(=O)C=C1CCNCC1` [Example 107, N-(4-(3-chloro-4-(pyridin-2-ylmethoxy)phenylamino)-7-ethoxyquinazolin-6-yl)-2-(piperidin-4-ylidene)acetamide], for which the inhibition at 3 µM is 52%.
With `COc1cc2ncnc(Nc3ccc(Oc4ccccc4)c(OC)c3)c2cc1NC(=O)C=C1CCNCC1` [Example 110, N-(7-methoxy-4-(3-methoxy-4-phenoxyphenylamino)quinazolin-6-yl)-2-(piperidin-4-ylidene)acetamide], it took 900 nM to reach a half-maximal effect (EC50) and the inhibition at 3 µM was found to be 59%.
For the compound `N#Cc1cnc2ccc(N)cc2c1Nc1ccc(F)c(Cl)c1` [Example 132, 6-amino-4-(3-chloro-4-fluorophenylamino)quinoline-3-carbonitrile], the inhibition at 3 µM was found to be 64%.
Take `COCCOc1cc2ncc(C#N)c(Nc3ccc(OCc4cccc(F)c4)c(Cl)c3)c2cc1N` [Example 141, 4-(4-(3-fluorobenzyloxy)-3-chlorophenylamino)-6-amino-7-(2-methoxyethoxy)quinoline-3-carbonitrile]: a half-maximal response (EC50) required 280 nM and the inhibition at 3 µM is 91%.
For `COc1cc2ncc(C#N)c(Nc3ccc(OCc4cccc(F)c4)c(Cl)c3)c2cc1NC(=O)C=C1CCNCC1` [Example 144, N-(4-(4-(3-fluorobenzyloxy)-3-chlorophenylamino)-3-cyano-7-methoxyquinolin-6-yl)-2-(piperidin-4-ylidene)acetamide], the inhibition at 3 µM turned out to be 89%.
